Structures are written as SMILES. Where two headings read alike, the source gives them in different places.

Here are results for 5 compounds from patent publication US20240101972A1, “METHODS OF […]-[…] PRODUCTION” (priority 2021, published 2024).

Experiment [1] has as its system Rep with C-terminal degron under the control of TRE3G promoter. The experiment is described as follows: AAV titer (qPCR) of Rep with C-terminal degron under TRE3G promoter control. Format: cell-based. How it is done:
(§1) PEI pro transfection reagent (Polyplus), OptiMEM (Gibco) were used. […] These cell pellets were kept at −80 freezer.
(§2) Frozen harvested cells were thawed and sonicated. […] Then DNaseI treatment was performed for 15 minutes.
(§3) In this study a Tet response element containing promoter (TRE3G) is cloned in front of the Rep gene as shown at FIG. 18A. This promoter can be activated in the presence of Tet proteins and doxycycline induction. Rep with C-terminal Degron under Tet Response Element promoter control is shown to be functional for AAV production regulation. Large Rep is under the control of Tet promoter and small Rep expression is provided by p19 promoter (Samples 1-5). […] Shield1 can upregulate small Rep expression (Sample 1 vs Sample 2) and large Rep expression (Sample 3 vs Sample 4). A separate plasmid is used for supplying Tet-On 3G transactivator protein where transactivator protein expression is under the control of ubiquitous CMV promoter (Samples 1-4). The amino acid sequence of the transactivator protein is: […]
(In general: Real-time PCR tracks product formation cycle by cycle.)

Experiment [2] concerns Rep with C-terminal FKBP degron. The experiment can be described thus: rAAV production from Rep-degron constructs, read out by Huh7 transduction and luciferase. It is filed as cell-based, human. The source says:
Various constructs were designed for the development of mechanism for controllable Rep accumulation and higher rAAV production. Rep transgene was tagged at N-terminus or C-terminus with a destabilization domain (degron) to confer instability and target the translated Rep protein product to proteasome for degradation. The Rep protein degradation can be reversed by addition of the Shield1 ligand. The degron was modified from a human gene encoding FK506-binding protein 12 (“FKBP12”). It was previously shown that F36V modifications of the protein improves its specificity to Shield1 over FK506 (Clackson et al, PNAS 1998). […] The amino acid sequence of the degron that was used in the present example, referred to herein as “FKBP”, having a F36V and an L107P mutation, was:
Production of rAAV: Recombinant AAV were produced by transfection of human embryonic kidney (HEK293) cells grown in 6-well plates. The cells at 70-90% confluency were transfected with 3 μg of total DNA using jetOPTIMUS® DNA (PolyPlus)transfection reagent. The positive control rAAV produced with LK03 Rep/Cap plasmid were produced via triple transfection method. The plasmids were added in 1:1:1 ratio (1 helper: 1 ITR plasmid: 1 rep/cap plasmids). […]
Transduction of cells: Huh7 cells were transduced with equivalent volume of cell lysate or the cell media containing the AAV vectors. […] Transduction efficiency was assessed in biological duplicates or triplicates. Culture media was replaced the following day, and samples were analyzed for transgene expression 48-72 hours after transduction. For detection of Luciferase expression, Huh7 cells were lysed in passive lysis buffer (Promega) and each biological sample was divided and plated to four wells of 96-well luminescence assay plate. Renilla Luciferase levels were determined using the Renilla Luciferase Assay Kit (Promega) and analyzed in a microplate luminometer (Spectramax) fitted with injectors.
Shield1 was added to selected wells (FIG. 2). […] The Huh7 cells were then lysed and luciferase activity was measured for the detection of transgene activity.

The subject of experiment [3] is FKBP degron tagged Rep proteins. The experiment is described as follows: AAV titer (qPCR) with FKBP degron tagged Rep. Format: cell-based, human. How it is done: as §1, §2
(§4) As depicted in FIGS. 12A-12D “RHM4-1” and “RHM4-1v2” are the plasmids that express both Rep proteins with no degrons and RHM4-1 Cap. In contrast, “p40Cap plasmid” only expresses RHM4-1 Capsid, while “pAAV2 Rep plasmid” expresses Rep proteins from AAV2. The ITR plasmid used in these studies has Gaussia Luciferase as transgene.

The target in experiment [4] is T1, Rep with C-terminal degron under the control of TRE3G promoter (Homo sapiens, UniProt P62942, F37V).
T1 construct: AAV Rep protein (fusion partner); expressed in transfected cells; host or cells: Expi293
T1 sequence (P62942 other isoform, or with tags, fused parts or gaps F37V): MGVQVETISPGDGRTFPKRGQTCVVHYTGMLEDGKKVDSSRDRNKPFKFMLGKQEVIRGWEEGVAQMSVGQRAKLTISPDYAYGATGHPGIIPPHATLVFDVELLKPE
The experiment can be described thus: Western blot of Rep with C-terminal degron under TRE3G promoter control. It is filed as cell-based. How it is done: as §1
(§5) Protein concentrations were measured with BCA kit (Pierce). […] Membranes were scanned with Odyssey (Li-Cor).
as §3
(In general: A western blot detects proteins with antibodies after separation by electrophoresis.)

Experiment [5] deals with FKBP degron tagged Rep proteins. The experiment is described as follows: Western blot of FKBP degron tagged Rep proteins. It is filed as cell-based, human. How it is done: as §1, §5, §4
Experiment [6] deals with ecDHFR degron tagged Rep proteins.
Method: Expi293 cells were seeded 1.4E6 viable cells/mL in Expi293 media the day before transfection. Transfection was performed when the viable cells were between 2E6-3E6 cells/mL. PEI pro transfection reagent (Polyplus), OptiMEM (Gibco) were used. PEI:DNA ratio was 2 and 0.6 μg DNA per million cells was used. Triple transfections were performed with RHM4-1 Rep Cap, Helper and Gaussia luciferase plasmids. Split Rep and Cap plasmids were used in a ratio of 1:4 (Rep:Cap). In some cases split Rep Cap plasmids and TIR1 or CMV-Tet were used in a ratio of 1:3:1 (Rep:Cap:TIR1 or CMV-Tet). 1.5 mM SAHA was added after the addition of DNA-PEI complexes. In some cases next day Shield1 or TMP or Auxin and/or Doxycycline was added. For Doxycycline treated samples another treatment of Dox was performed 24 hr later than first treatment. Cells harvested at 4,8,24 hr post-treatment and 44 hr or 68 hr or 72 hr post-transfection; centrifuged and washed with cold PBS. These cell pellets were kept at −80 freezer.
Cell pellets were lysed with RIPA buffer (Pierce) including protease and phosphatase inhibitors and EDTA on ice for 30 minutes. Lysates were centrifuged max speed for 15 minutes and supernatant was transferred to a new Eppendorf tube and used for Western. Protein concentrations were measured with BCA kit (Pierce). 30 lag protein per lane loaded for SDS-PAGE gels. These gels were transferred to either PVDF or Nitrocellulose membrane. Membranes were blocked with blocking buffer (Li-Cor) for 30 minutes at room temperature. Anti-AAV Rep clone 303.9 (ARP, cat #03-61069) purified mouse monoclonal antibody was diluted 500 times in either blocking buffer (Li-Cor) or antibody diluent (Li-Cor). Membranes were incubated overnight in cold room either rocking or non-rocking. Next day membranes were washed 3 times 10 minutes each with 1×TBST buffer (Invitrogen). Goat anti-mouse Alexa Flour 680 secondary antibody was diluted 1000 times in either blocking buffer (Li-Cor) or antibody diluent (Li-Cor). Membranes were incubated at room temperature rocking for 45 minutes. […]
Experiment [7] shares this test system. This is another data set of the same source.
Method: Expi293 cells were seeded 1.4E6 viable cells/mL in Expi293 media the day before transfection. Transfection was performed when the viable cells were between 2E6-3E6 cells/mL. PEI pro transfection reagent (Polyplus), OptiMEM (Gibco) were used. PEI:DNA ratio was 2 and 0.6 μg DNA per million cells was used. Triple transfections were performed with RHM4-1 Rep Cap, Helper and Gaussia luciferase plasmids. Split Rep and Cap plasmids were used in a ratio of 1:4 (Rep:Cap). In some cases split Rep Cap plasmids and TIR1 or CMV-Tet were used in a ratio of 1:3:1 (Rep:Cap:TIR1 or CMV-Tet). 1.5 mM SAHA was added after the addition of DNA-PEI complexes. In some cases next day Shield1 or TMP or Auxin and/or Doxycycline was added. For Doxycycline treated samples another treatment of Dox was performed 24 hr later than first treatment. Cells harvested at 4,8,24 hr post-treatment and 44 hr or 68 hr or 72 hr post-transfection; centrifuged and washed with cold PBS. These cell pellets were kept at −80 freezer. 1 mL of cells harvested 44 hr or 68 hr or 72 hr post-transfection for qPCR.
Frozen harvested cells were thawed and sonicated. 300 μL sonicated cells were treated with Benzonase for 1 hour at 37° C. incubator on a rotator/shaker. Then DNaseI treatment was performed for 15 minutes. Reaction was stopped with stop reagent (0.2% SDS/5 mM EDTA/0.2M NaCl), heated at 95° C. for 10 minutes and centrifuged. […]
For experiment [8], the system named is C-terminal Auxin Inducible Degron containing Rep. The experiment is described as follows: AAV titer (qPCR) with Auxin Inducible Degron tagged Rep. The conditions noted are these: auxin and TIR1 all present (Sample 4), FIG. 14B. It is filed as cell-based. How it is done: as §1, §2
Where [9] appears, read: Rep constructs with C-terminal tagged degron, FIG. 15.

For the compound `C[C@H]1c2cccc(O)c2C(=O)C2=C(O)[C@]3(O)C(=O)C(C(N)=O)=C(O)[C@@H](N(C)C)[C@@H]3[C@@H](O)[C@@H]21` [Doxycycline, doxycycline], the “increase of AAV production from the basal levels” value in experiment [1] (Doxycycline induction, FIG. 16B) was approximately 29 times.

Take `CC[C@H](C(=O)N1CCCC[C@H]1C(=O)O[C@H](CCc1ccc(OC)c(OC)c1)c1cccc(OCCN2CCOCC2)c1)c1cc(OC)c(OC)c(OC)c1` [Shield1]: in experiment [2] (Rep with C-terminally linked degron in the presence of both Cap and Shield1, FIG. 6), the rAAV production result is listed as “significantly increased”. The “rAAV production and transduction of the target cells” value in experiment [2] (Shield1 addition, Rep-only plasmid C-terminal degron, HEK293, FIG. 4) is on record as “rescued”. In addition, the transduction efficiency in experiment [2] (of the wt Rep/Cap plasmid, Rep-only plasmid C-terminal degron with Shield1, FIG. 4) was 15-20%. The AAV titer entry in experiment [3] (N- and C-terminal degron constructs vs untreated controls, FIG. 12C) is given as “increases AAV titer”; in experiment [1] (codon-modified Rep and small Rep under TRE3G and degron control, treated with Shield1 and Dox together, FIG. 20B), “higher”. Moreover, the “AAV production at different doses” value in experiment [3] (setting [9]) is recorded as “more effective at 500 nM concentration”. In experiment [4] (Sample 1 vs Sample 2, FIG. 16A), the “small Rep expression” value was “upregulate”. The “large Rep expression” value is reported as “upregulate” in experiment [4] (Sample 3 vs Sample 4 (with doxycycline), FIG. 16A); “increased further” in experiment [4] (Shield1 added on top of doxycycline, Samples 4 and 8, FIG. 18B); “increases” in experiment [5] (N-degron Rep, 4, 8, 24 hours after Shield1 vs untreated, FIG. 12A). Further, in experiment [4] (Samples 2, 4, 6, 8 vs 1, 3, 5, 7, FIG. 17A), the “Large and small Rep expression” value was “increased”. For the same compound, in experiment [5] (C-degron Rep, 4, 8, 24 hour after Shield1 vs untreated, FIG. 12B), the “Small and large Rep expression” value is on record as “higher”.

Regarding `COc1cc(Cc2cnc(N)nc2N)cc(OC)c1OC` [TMP, Trimethoprim], the “Small and large Rep expression” value in experiment [6] (C-ecDegron Rep, 5 μM TMP, FIG. 13B) is “more”; in experiment [6] (C-terminal tagged ecDHFR degron, Samples 7 and 8, FIG. 14A), “more”. The “large Rep expression” value in experiment [6] (N-ecDegron Rep, 5 μM TMP, 24 hour time point, FIG. 13A) is recorded as “higher”. Moreover, the AAV titer entry in experiment [7] (C-terminal ecDHFR degron constructs, FIG. 13C) is recorded as “increases”. Besides, the AAV production result in experiment [7] (ecDHFR degron tagged Reps, Sample 8 vs Sample 7 (undetectable without TMP), FIG. 14B) was “can produce AAV”.

With `O=C(O)Cc1c[nH]c2ccccc12` [auxin], the AAV production result in experiment [8] is listed as “undetectable”.

For `CC[C@H](C(=O)N1CCCC[C@H]1C(=O)O[C@H](CCc1ccc(OC)c(OC)c1)c1ccccc1OCC(=O)NCCCCCCOc1cccc2c1C(=O)N(C1CCC(=O)NC1=O)C2=O)c1cc(OC)c(OC)c(OC)c1` (some centres unmarked) [dTag13], the “basal level of the AAV production” value in experiment [3] (setting [9]) is “did not decrease”.
